Laboratory results taken from patent publication US20260001888A1, “PYRAZOLOPYRIMIDINE PDE9 INHIBITORS” (Merck Sharp & Dohme LLC, priority 2018, published 2026).

Target: Human PDE9 (PDE9A2) (Homo sapiens (Human), UniProt O76083)
Experiment: PDE9 IMAP fluorescence polarization (FP) inhibition assay
Assay type: biochemical
Conditions: apparent inhibition constant; human PDE9A2, FAM-cGMP substrate 50 nM, room temperature
Outline: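 N-terminal GST-tagged full-length PDE9A2 membrane prep (0.5 ng/ml final) preincubated 30 min with compound at room temperature, then 50 nM FAM-cGMP added for 60 min; IMAP binding reagent stops reaction, FP read after 1 h. Controls: known PDE9 inhibitor (100%), 1% DMSO (0%). KI from four-parameter fit.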

Sequence of Human PDE9 (PDE9A2) (O76083 other isoform, or with tags, fused parts or gaps): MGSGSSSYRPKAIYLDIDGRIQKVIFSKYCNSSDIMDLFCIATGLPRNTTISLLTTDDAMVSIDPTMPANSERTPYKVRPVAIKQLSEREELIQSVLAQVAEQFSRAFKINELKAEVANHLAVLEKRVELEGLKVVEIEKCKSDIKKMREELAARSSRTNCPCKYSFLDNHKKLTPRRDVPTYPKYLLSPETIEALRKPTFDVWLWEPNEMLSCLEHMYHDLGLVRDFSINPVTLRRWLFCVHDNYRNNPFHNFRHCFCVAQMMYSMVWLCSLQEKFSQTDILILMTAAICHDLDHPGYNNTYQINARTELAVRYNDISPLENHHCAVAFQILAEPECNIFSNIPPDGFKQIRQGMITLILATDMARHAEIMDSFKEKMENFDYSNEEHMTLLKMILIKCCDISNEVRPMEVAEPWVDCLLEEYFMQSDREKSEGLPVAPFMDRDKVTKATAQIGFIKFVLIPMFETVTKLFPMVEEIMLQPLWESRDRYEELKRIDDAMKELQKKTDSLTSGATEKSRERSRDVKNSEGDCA

| Compound | Ki [nM] |
| --- | --- |
| C=CCCC(c1ncccn1)N(C)c1nc2c(c(C#N)nn2C(C)c2ccc(C(F)(F)F)nc2)c(=O)[nH]1 (single isomer, unassigned) [Example 41, 6-[methyl(1-pyrimidin-2-ylpent-4-enyl)amino]-4-oxo-1-[1-[6-(trifluoromethyl)-3-pyridyl]ethyl]-5H-pyrazolo[3,4-d]pyrimidine-3-carbonitrile] | 0.42 |
| C=CCCC(c1ncccn1)N(C)c1nc2c(c(C#N)nn2C(C)c2ccc(C(F)(F)F)nc2)c(=O)[nH]1 (single isomer, unassigned) [Example 42, 6-[methyl(1-pyrimidin-2-ylpent-4-enyl)amino]-4-oxo-1-[1-[6-(trifluoromethyl)-3-pyridyl]ethyl]-5H-pyrazolo[3,4-d]pyrimidine-3-carbonitrile] | 13.2 |
| C=CCCC(c1ncccn1)N(C)c1nc2c(c(C#N)nn2C(C)c2ccc(C(F)(F)F)nc2)c(=O)[nH]1 (single isomer, unassigned) [Example 43, 6-[methyl(1-pyrimidin-2-ylpent-4-enyl)amino]-4-oxo-1-[1-[6-(trifluoromethyl)-3-pyridyl]ethyl]-5H-pyrazolo[3,4-d]pyrimidine-3-carbonitrile] | 38.8 |
| C=CCCC(c1ncccn1)N(C)c1nc2c(c(C#N)nn2C(C)c2ccc(C(F)(F)F)nc2)c(=O)[nH]1 (single isomer, unassigned) [Example 44, 6-[methyl(1-pyrimidin-2-ylpent-4-enyl)amino]-4-oxo-1-[1-[6-(trifluoromethyl)-3-pyridyl]ethyl]-5H-pyrazolo[3,4-d]pyrimidine-3-carbonitrile] | 19.6 |
| CC(c1ccc(C(F)(F)F)nc1)n1nc(C#N)c2c(=O)[nH]c(N3CCC3c3ncccn3)nc21 (single isomer, unassigned) [Example 45, 4-oxo-6-(2-pyrimidin-2-ylazetidin-1-yl)-1-[1-[6-(trifluoromethyl)-3-pyridyl]ethyl]-5H-pyrazolo[3,4-d]pyrimidine-3-carbonitrile] | 0.23 |
| CC(c1ccc(C(F)(F)F)nc1)n1nc(C#N)c2c(=O)[nH]c(N3CCC3c3ncccn3)nc21 (single isomer, unassigned) [Example 46, 4-oxo-6-(2-pyrimidin-2-ylazetidin-1-yl)-1-[1-[6-(trifluoromethyl)-3-pyridyl]ethyl]-5H-pyrazolo[3,4-d]pyrimidine-3-carbonitrile] | 21.4 |
| CC(c1ccc(C(F)(F)F)nc1)n1nc(C#N)c2c(=O)[nH]c(N3CCC3c3ncccn3)nc21 (single isomer, unassigned) [Example 47, 4-oxo-6-(2-pyrimidin-2-ylazetidin-1-yl)-1-[1-[6-(trifluoromethyl)-3-pyridyl]ethyl]-5H-pyrazolo[3,4-d]pyrimidine-3-carbonitrile] | 22.7 |
| CC(c1ccc(C(F)(F)F)nc1)n1nc(C#N)c2c(=O)[nH]c(N3CCC3c3ncccn3)nc21 (single isomer, unassigned) [Example 48, 4-oxo-6-(2-pyrimidin-2-ylazetidin-1-yl)-1-[1-[6-(trifluoromethyl)-3-pyridyl]ethyl]-5H-pyrazolo[3,4-d]pyrimidine-3-carbonitrile] | 17.4 |
| CC(c1ccc(C(F)(F)F)nc1)n1nc(C#N)c2c(=O)[nH]c(N3CCC3c3ccc(F)cc3)nc21 (single isomer, unassigned) [Example 49, 6-[2-(4-fluorophenyl)azetidin-1-yl]-4-oxo-1-[1-[6-(trifluoromethyl)-3-pyridyl]ethyl]-5H-pyrazolo[3,4-d]pyrimidine-3-carbonitrile] | 22.7 |
| CC(c1ccc(C(F)(F)F)nc1)n1nc(C#N)c2c(=O)[nH]c(N3CCC3c3ccc(F)cc3)nc21 (single isomer, unassigned) [Example 50, 6-[2-(4-fluorophenyl)azetidin-1-yl]-4-oxo-1-[1-[6-(trifluoromethyl)-3-pyridyl]ethyl]-5H-pyrazolo[3,4-d]pyrimidine-3-carbonitrile] | 0.6 |
| CC(c1ccc(C(F)(F)F)nc1)n1nc(C#N)c2c(=O)[nH]c(N3CCC3c3ccc(F)cc3)nc21 (single isomer, unassigned) [Example 51, 6-[2-(4-fluorophenyl)azetidin-1-yl]-4-oxo-1-[1-[6-(trifluoromethyl)-3-pyridyl]ethyl]-5H-pyrazolo[3,4-d]pyrimidine-3-carbonitrile] | 7.41 |
| CC(c1ccc(C(F)(F)F)nc1)n1nc(C#N)c2c(=O)[nH]c(N3CCC3c3ccc(F)cc3)nc21 (single isomer, unassigned) [Example 52, 6-[2-(4-fluorophenyl)azetidin-1-yl]-4-oxo-1-[1-[6-(trifluoromethyl)-3-pyridyl]ethyl]-5H-pyrazolo[3,4-d]pyrimidine-3-carbonitrile] | 6.7 |
| CC(c1ccc(C(F)(F)F)nc1)n1nc(C#N)c2c(=O)[nH]c(N3CCCC3c3ncccn3)nc21 (single isomer, unassigned) [Example 53, 4-oxo-6-(2-pyrimidin-2-ylpyrrolidin-1-yl)-1-[1-[6-(trifluoromethyl)-3-pyridyl]ethyl]-5H-pyrazolo[3,4-d]pyrimidine-3-carbonitrile] | 207 |
| CC(c1ccc(C(F)(F)F)nc1)n1nc(C#N)c2c(=O)[nH]c(N3CCCC3c3ncccn3)nc21 (single isomer, unassigned) [Example 54, 4-oxo-6-(2-pyrimidin-2-ylpyrrolidin-1-yl)-1-[1-[6-(trifluoromethyl)-3-pyridyl]ethyl]-5H-pyrazolo[3,4-d]pyrimidine-3-carbonitrile] | 6.53 |
| CC(c1ccc(C(F)(F)F)nc1)n1nc(C#N)c2c(=O)[nH]c(N3CCCC3c3ncccn3)nc21 (single isomer, unassigned) [Example 55, 4-oxo-6-(2-pyrimidin-2-ylpyrrolidin-1-yl)-1-[1-[6-(trifluoromethyl)-3-pyridyl]ethyl]-5H-pyrazolo[3,4-d]pyrimidine-3-carbonitrile] | 124 |
| CC(c1ccc(C(F)(F)F)nc1)n1nc(C#N)c2c(=O)[nH]c(N3CCCC3c3ncccn3)nc21 (single isomer, unassigned) [Example 56, 4-oxo-6-(2-pyrimidin-2-ylpyrrolidin-1-yl)-1-[1-[6-(trifluoromethyl)-3-pyridyl]ethyl]-5H-pyrazolo[3,4-d]pyrimidine-3-carbonitrile] | 289 |
| CC(c1ccc(C(F)(F)F)nc1)n1nc(C#N)c2c(=O)[nH]c(N3CCC3c3ccc(F)cc3)nc21 (single isomer, unassigned) [Example 57, 6-[2-(4-fluorophenyl)azetidin-1-yl]-4-oxo-1-[1-[6-(trifluoromethyl)-3-pyridyl]ethyl]-5H-pyrazolo[3,4-d]pyrimidine-3-carbonitrile] | 1.05 |
| CC(c1ccc(C(F)(F)F)nc1)n1nc(C#N)c2c(=O)[nH]c(N3CCC3c3ccc(F)cc3)nc21 (single isomer, unassigned) [Example 58, 6-[2-(4-fluorophenyl)azetidin-1-yl]-4-oxo-1-[1-[6-(trifluoromethyl)-3-pyridyl]ethyl]-5H-pyrazolo[3,4-d]pyrimidine-3-carbonitrile] | 7.8 |
| CCC(c1ncc(F)cn1)N(C)c1nc2c(c(C#N)nn2C(C)c2ccc(C3CC3)nc2)c(=O)[nH]1 (single isomer, unassigned) [Example 63, 1-[1-(6-cyclopropyl-3-pyridyl)ethyl]-6-[1-(5-fluoropyrimidin-2-yl)propyl-methyl-amino]-4-oxo-5H-pyrazolo[3,4-d]pyrimidine-3-carbonitrile] | 14.7 |
| CCC(c1ncc(F)cn1)N(C)c1nc2c(c(C#N)nn2C(C)c2ccc(C3CC3)nc2)c(=O)[nH]1 (single isomer, unassigned) [Example 64, 1-[1-(6-cyclopropyl-3-pyridyl)ethyl]-6-[1-(5-fluoropyrimidin-2-yl)propyl-methyl-amino]-4-oxo-5H-pyrazolo[3,4-d]pyrimidine-3-carbonitrile] | 11.9 |
| CCC(c1ncc(F)cn1)N(C)c1nc2c(c(C#N)nn2C(C)c2ccc(C3CC3)nc2)c(=O)[nH]1 (single isomer, unassigned) [Example 65, 1-[1-(6-cyclopropyl-3-pyridyl)ethyl]-6-[1-(5-fluoropyrimidin-2-yl)propyl-methyl-amino]-4-oxo-5H-pyrazolo[3,4-d]pyrimidine-3-carbonitrile] | 0.03 |
| CCC(c1ncc(F)cn1)N(C)c1nc2c(c(C#N)nn2C(C)c2ccc(C3CC3)nc2)c(=O)[nH]1 (single isomer, unassigned) [Example 66, 1-[1-(6-cyclopropyl-3-pyridyl)ethyl]-6-[1-(5-fluoropyrimidin-2-yl)propyl-methyl-amino]-4-oxo-5H-pyrazolo[3,4-d]pyrimidine-3-carbonitrile] | 0.6 |
| CCC(c1ncc(F)cn1)N(C)c1nc2c(c(C#N)nn2C(C)c2ccc(C3CC3)cc2)c(=O)[nH]1 (single isomer, unassigned) [Example 67, 1-[1-(4-cyclopropylphenyl)ethyl]-6-[1-(5-fluoropyrimidin-2-yl)propyl-methyl-amino]-4-oxo-5H-pyrazolo[3,4-d]pyrimidine-3-carbonitrile] | 0.71 |
| CCC(c1ncc(F)cn1)N(C)c1nc2c(c(C#N)nn2C(C)c2ccc(C3CC3)cc2)c(=O)[nH]1 (single isomer, unassigned) [Example 68, 1-[1-(4-cyclopropylphenyl)ethyl]-6-[1-(5-fluoropyrimidin-2-yl)propyl-methyl-amino]-4-oxo-5H-pyrazolo[3,4-d]pyrimidine-3-carbonitrile] | 0.73 |
| CCC(c1ncc(F)cn1)N(C)c1nc2c(c(C#N)nn2C(C)c2ccc(C3CC3)cc2)c(=O)[nH]1 (single isomer, unassigned) [Example 69, 1-[1-(4-cyclopropylphenyl)ethyl]-6-[1-(5-fluoropyrimidin-2-yl)propyl-methyl-amino]-4-oxo-5H-pyrazolo[3,4-d]pyrimidine-3-carbonitrile] | 14.9 |
| CCC(c1ncc(F)cn1)N(C)c1nc2c(c(C#N)nn2C(C)c2ccc(C3CC3)cc2)c(=O)[nH]1 (single isomer, unassigned) [Example 70, 1-[1-(4-cyclopropylphenyl)ethyl]-6-[1-(5-fluoropyrimidin-2-yl)propyl-methyl-amino]-4-oxo-5H-pyrazolo[3,4-d]pyrimidine-3-carbonitrile] | 0.02 |
